The target in this experiment is CDK9/Cyclin T (Homo sapiens, UniProt P50750). As to the kind of experiment: Inhibition of CDK9/cyclin T (unknown origin) assessed as inhibition constant. In kind it is protein-complex assay.

Drawing on ChEMBL document CHEMBL5241131, “2-Anilino-4-(1-methyl-1H-pyrazol-4-yl)pyrimidine-derived CDK2 inhibitors as anticancer agents: Design, synthesis & evaluation” (Bioorg Med Chem, 2023), this text covers Ki for one molecule.

pKi: −log10 of the molar value.

Sequence of CDK9/Cyclin T (O60563 whole entry): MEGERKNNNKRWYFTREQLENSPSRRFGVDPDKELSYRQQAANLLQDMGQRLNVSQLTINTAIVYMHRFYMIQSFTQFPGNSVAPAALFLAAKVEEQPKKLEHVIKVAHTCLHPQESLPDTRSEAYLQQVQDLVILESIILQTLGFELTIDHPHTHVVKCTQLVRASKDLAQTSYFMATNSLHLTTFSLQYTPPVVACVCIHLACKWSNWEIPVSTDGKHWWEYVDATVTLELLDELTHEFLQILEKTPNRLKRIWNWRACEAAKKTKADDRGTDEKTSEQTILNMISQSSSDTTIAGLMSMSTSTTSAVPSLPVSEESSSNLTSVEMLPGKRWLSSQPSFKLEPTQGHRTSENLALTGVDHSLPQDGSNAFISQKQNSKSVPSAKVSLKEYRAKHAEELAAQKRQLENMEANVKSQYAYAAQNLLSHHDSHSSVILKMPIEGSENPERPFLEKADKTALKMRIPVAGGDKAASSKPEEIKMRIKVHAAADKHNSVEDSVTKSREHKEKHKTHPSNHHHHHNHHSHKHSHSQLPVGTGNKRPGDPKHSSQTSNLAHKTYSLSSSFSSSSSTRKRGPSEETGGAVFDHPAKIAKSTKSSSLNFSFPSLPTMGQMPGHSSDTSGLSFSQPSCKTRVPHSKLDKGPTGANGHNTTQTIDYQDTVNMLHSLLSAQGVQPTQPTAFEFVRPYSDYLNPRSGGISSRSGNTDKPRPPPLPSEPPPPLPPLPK
Sequence of CDK9/Cyclin T (P50750 whole entry): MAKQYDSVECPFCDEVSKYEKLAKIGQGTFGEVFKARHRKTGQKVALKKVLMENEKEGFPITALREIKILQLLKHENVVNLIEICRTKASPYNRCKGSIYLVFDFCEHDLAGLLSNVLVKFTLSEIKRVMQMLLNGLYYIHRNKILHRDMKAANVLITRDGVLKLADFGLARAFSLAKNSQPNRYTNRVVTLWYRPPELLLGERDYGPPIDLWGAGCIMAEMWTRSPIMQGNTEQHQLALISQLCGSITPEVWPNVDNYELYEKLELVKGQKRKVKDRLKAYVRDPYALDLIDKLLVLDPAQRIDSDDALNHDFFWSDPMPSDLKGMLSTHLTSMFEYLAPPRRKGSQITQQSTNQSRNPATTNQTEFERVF
Sequence of CDK9/Cyclin T (O60583 whole entry, further chain): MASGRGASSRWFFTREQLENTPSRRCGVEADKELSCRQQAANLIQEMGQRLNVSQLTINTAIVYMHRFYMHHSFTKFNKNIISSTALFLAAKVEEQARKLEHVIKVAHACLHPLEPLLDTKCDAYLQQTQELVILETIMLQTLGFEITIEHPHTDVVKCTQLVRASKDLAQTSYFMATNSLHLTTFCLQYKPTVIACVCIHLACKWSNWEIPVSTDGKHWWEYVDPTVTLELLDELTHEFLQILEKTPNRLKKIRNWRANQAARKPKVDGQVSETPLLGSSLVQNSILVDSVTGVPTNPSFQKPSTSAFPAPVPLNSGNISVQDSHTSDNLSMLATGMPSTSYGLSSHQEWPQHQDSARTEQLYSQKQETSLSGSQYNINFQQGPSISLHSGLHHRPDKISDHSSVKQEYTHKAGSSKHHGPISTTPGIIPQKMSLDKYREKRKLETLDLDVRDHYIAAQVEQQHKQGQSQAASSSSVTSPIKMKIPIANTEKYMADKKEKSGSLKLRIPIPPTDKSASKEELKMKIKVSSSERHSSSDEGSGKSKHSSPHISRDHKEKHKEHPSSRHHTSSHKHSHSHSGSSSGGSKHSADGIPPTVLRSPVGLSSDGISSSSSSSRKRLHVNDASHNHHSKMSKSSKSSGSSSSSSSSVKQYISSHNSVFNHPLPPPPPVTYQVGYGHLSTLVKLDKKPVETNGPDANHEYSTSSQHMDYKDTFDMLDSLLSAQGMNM

The term pKi denotes −log10 of the Ki, conventionally taken in molar units. For the molecule `C[C@@]1(O)CCC[C@H]1n1c(=O)c(C(F)F)cc2cnc(NC3CCN(S(C)(=O)=O)CC3)nc21` [EBVACICLIB], the pKi is > 7.72.
